Measured values as given in patent US7265152B2 (ViroPharma Incorporated, priority 2002, dated 2007).
pEC50, pIC50: −log10 of the molar value. Where two headings read alike, the source gives them in different places.

Assays:
HCV NS5B = biological target: T1, HCV NS5B (Hepatitis C virus genotype 1b, UniProt Q9WMX2); test: Inhibition of viral RNA-dependent RNA polymerase (RdRp), in vitro biochemical assay; set-up: species or system HCV genotype 1b virus (BB7); conditions: HCV NS5B RdRp, BB7; class symbols A-D; read-out: HCV pol-BB7 IC50
T1 construct: fusion protein, of which the carboxyl terminal 21 amino acids were removed to enhance its solubility; His tag (GSHHHHHH); made in house; host or cells: E. coli
In short: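 Purified recombinant NS5B from a genotype 1b consensus (BB7), His-tagged, E. coli-expressed, with the C-terminal 21 residues deleted. Inhibition of RdRp activity in vitro was measured, and IC50 is the concentration giving 50% inhibition.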

[1] = test system: HCV replicon (BB7 sequence) in Huh-7-Clone A cells; test: HCV replicon assay: ELISA of NS5A protein in replicon-containing cells (Inhibition of Viral RNA Replication); format: cell-based; conditions: Hepatitis C virus; for pEC50: HCV replicon assay, ranges of EC50, read-out: Replicon; for EC50: read-out: Replicon (μM)
In short: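 Huh-7-Clone A cells carrying subgenomic BB7 HCV replicon (G418-selectable) incubated 72 h with compound. NS5A protein quantified by cell ELISA: glutaraldehyde fixation, anti-NS5A monoclonal plus HRP secondary, TMB read at OD 650 nm. EC50 derived from 8-point serial dilution dose curve.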

Question: With `CNC(=O)c1c(-c2ccc(F)cc2)oc2cc(N(Cc3cc(C)on3)S(C)(=O)=O)c(OC(C)C)cc12` [Example 282, 2-(4-Fluoro-phenyl)-5-isopropoxy-6-[methanesulfonyl-(5-methyl-isoxazol-3-ylmethyl)-amino]-benzofuran-3-carboxylic acid methylamide] as the molecule, how does the pIC50 (HCV NS5B) read?
Answer: The pIC50 was at least 6.30.

Question: What about the pEC50 [1] of the same molecule?
Answer: The pEC50 was over 6.00.

Question: How did the pIC50 (HCV NS5B) turn out when `CNC(=O)c1c(-c2ccc(F)cc2)oc2cc(-c3cc(C)on3)c(OC(C)C)cc12` [Example 283, 2-(4-Fluoro-phenyl)-5-isopropoxy-6-(5-methyl-isoxazol-3-yl)-benzofuran-3-carboxylic acid methylamide] was run?
Answer: Its pIC50 is at least 6.30.

Question: And the pEC50 [1]?
Answer: Its pEC50 is over 6.00.

Question: Which results are given for `CNC(=O)c1c(-c2ccc(F)cc2)oc2cc(N(Cc3c(C)noc3C)S(C)(=O)=O)c(OC(C)C)cc12` [Example 284, 6-[(3,5-Dimethyl-isoxazol-4-ylmethyl)-methanesulfonyl-amino]-2-(4-fluoro-phenyl)-5-isopropoxy-benzofuran-3-carboxylic acid methylamide]?
Answer: pIC50 (HCV NS5B): ≥ 6.30; pEC50 [1]: > 5.00

Question: What does the source list for `CNC(=O)c1c(-c2ccc(F)cc2)oc2cc(N(Cc3nccs3)S(C)(=O)=O)c(OC(C)C)cc12` [Example 285, 2-(4-Fluoro-phenyl)-5-isopropoxy-6-(methanesulfonyl-thiazol-2-ylmethyl-amino)-benzofuran-3-carboxylic acid methylamide]?
Answer: pIC50 (HCV NS5B): ≥ 6.30; pEC50 [1]: > 6.00

Question: Which results are given for `CCOC(=O)c1csc(CN(c2cc3oc(-c4ccc(F)cc4)c(C(=O)NC)c3cc2OC(C)C)S(C)(=O)=O)n1` [Example 286, 2-({[2-(4-Fluoro-phenyl)-5-isopropoxy-3-methylcarbamoyl-benzofuran-6-yl]-methanesulfonylamino}-methyl)-thiazole-4-carboxylic acid ethyl ester]?
Answer: pIC50 (HCV NS5B): ≥ 6.30; pEC50 [1]: > 5.00

Question: With `CNC(=O)c1c(-c2ccc(F)cc2)oc2cc(N(C)S(C)(=O)=O)c(O)cc12` [Example 287, 2-(4-Fluoro-phenyl)-5-hydroxy-6-(methanesulfonyl-methyl-amino)-benzofuran-3-carboxylic acid methylamide] as the molecule, how does the pIC50 (HCV NS5B) read?
Answer: The pIC50 was at least 6.30.

Question: What about the pEC50 [1] of the same molecule?
Answer: The pEC50 was over 5.00.

Question: How did the pIC50 (HCV NS5B) turn out when `C=CCOc1cc2c(C(=O)NC)c(-c3ccc(F)cc3)oc2cc1N(CC=C)S(C)(=O)=O` [Example 288, 6-(Allyl-methanesulfonyl-amino)-5-allyloxy-2-(4-fluoro-phenyl)-benzofuran-3-carboxylic acid methylamide] was run?
Answer: The pIC50 was at least 6.30.

Question: And the pEC50 [1]?
Answer: The pEC50 was over 6.00.

Question: How did the pIC50 (HCV NS5B) turn out when `CNC(=O)c1c(-c2ccc(F)cc2)oc2cc(N(C(C)=O)S(C)(=O)=O)c(OC)cc12` [Example 289, 6-(Acetyl-methanesulfonyl-amino)-2-(4-fluoro-phenyl)-5-methoxy-benzofuran-3-carboxylic acid methylamide] was run?
Answer: The pIC50 was at least 6.30.

Question: What about the pEC50 [1] of the same molecule?
Answer: Its pEC50 is over 6.00.

Question: How did the pIC50 (HCV NS5B) turn out when `CNC(=O)c1c(-c2ccc(F)cc2)oc2cc(N(Cc3c(C)noc3C)S(C)(=O)=O)c(OC)cc12` [Example 290, 6-[(3,5-Dimethyl-isoxazol-4-ylmethyl)-methanesulfonyl-amino]-2-(4-fluoro-phenyl)-5-methoxy-benzofuran-3-carboxylic acid methylamide] was run?
Answer: Its pIC50 is at least 6.30.

Question: What about the pEC50 [1] of the same molecule?
Answer: Its pEC50 is over 5.00.

Question: With `CNC(=O)c1c(-c2ccc(F)cc2)oc2cc(N(Cc3cscn3)S(C)(=O)=O)c(OC)cc12` [Example 291, 2-(4-Fluoro-phenyl)-6-(methanesulfonyl-thiazol-4-ylmethyl-amino)-5-methoxy-benzofuran-3-carboxylic acid methylamide] as the molecule, how does the pIC50 (HCV NS5B) read?
Answer: Its pIC50 is at least 6.30.

Question: And the pEC50 [1]?
Answer: The pEC50 was over 6.00.

Question: `CNC(=O)c1c(-c2ccc(F)cc2)oc2cc(N(Cc3nc(C(=O)O)cs3)S(C)(=O)=O)c(OC(C)C)cc12` [Example 292, 2-({[2-(4-Fluoro-phenyl)-5-isopropoxy-3-methylcarbamoyl-benzofuran-6-yl]-methanesulfonyl-amino}-methyl)-thiazole-4-carboxylic acid] was tested. Which pIC50 (HCV NS5B) did it give?
Answer: The pIC50 was at least 6.30.

Question: And the pEC50 [1]?
Answer: The pEC50 was under 4.00.

Question: Which results are given for `CNC(=O)c1c(-c2ccc(F)cc2)oc2cc(N3CCOCC3)c(OCc3ccc4c(c3)C(=O)OC(C)(C)O4)cc12` [Example 293]?
Answer: pIC50 (HCV NS5B): 5.30 to 6.30; EC50 [1]: < 10 µM

Question: With `CCN(c1cc2oc(-c3ccc(F)cc3)c(C(=O)NC)c2cc1OCc1ccc2c(c1)C(=O)OC(C)(C)O2)S(C)(=O)=O` [Example 294] as the molecule, how does the pIC50 (HCV NS5B) read?
Answer: Its pIC50 is at least 6.30.

Question: And the EC50 [1]?
Answer: The EC50 was under 1 µM.

Question: With `CCN(c1cc2oc(-c3ccc(F)cc3)c(C(=O)NC)c2cc1O)S(C)(=O)=O` [Example 297, 6-(Ethyl-methanesulfonyl-amino)-2-(4-fluoro-phenyl)-5-hydroxy-benzofuran-3-carboxylic acid methylamide] as the molecule, how does the pIC50 (HCV NS5B) read?
Answer: Its pIC50 is at least 6.30.

Question: What about the pEC50 [1] of the same molecule?
Answer: The pEC50 was over 5.00.

Question: `CNC(=O)c1c(-c2ccc(F)cc2)oc2cc(N(C)S(C)(=O)=O)c(OC(F)F)cc12` [Example 298, 5-Difluoromethoxy-2-(4-fluoro-phenyl)-6-(methanesulfonyl-methyl-amino)-benzofuran-3-carboxylic acid methylamide] was tested. Which pIC50 (HCV NS5B) did it give?
Answer: Its pIC50 is at least 6.30.

Question: What about the pEC50 [1] of the same molecule?
Answer: The pEC50 was over 6.00.

Question: `CNC(=O)c1c(-c2ccc(F)cc2)oc2cc(N(Cc3ccncc3)S(C)(=O)=O)c(OC)cc12` [Example 299, 2-(4-Fluoro-phenyl)-6-(methanesulfonyl-pyridin-4-ylmethyl-amino)-5-methoxy-benzofuran-3-carboxylic acid methylamide] was tested. Which pIC50 (HCV NS5B) did it give?
Answer: The pIC50 was at least 6.30.

Question: What about the pEC50 [1] of the same molecule?
Answer: Its pEC50 is over 6.00.

Question: How did the pIC50 (HCV NS5B) turn out when `CNC(=O)c1c(-c2ccc(F)cc2)oc2cc(C(C)(C)O)c(C)cc12` [Example 300, 2-(4-Fluoro-phenyl)-6-(1-hydroxy-1-methyl-ethyl)-5-methyl-benzofuran-3-carboxylic acid methylamide] was run?
Answer: The pIC50 was at least 6.30.

Question: What about the pEC50 [1] of the same molecule?
Answer: Its pEC50 is over 5.00.

Question: With `CNC(=O)c1c(-c2ccc(F)cc2)oc2cc(C(C)=O)c(C)cc12` [Example 301, 6-Acetyl-2-(4-fluoro-phenyl)-5-methyl-benzofuran-3-carboxylic acid methylamide] as the molecule, how does the pIC50 (HCV NS5B) read?
Answer: The pIC50 was at least 6.30.

Question: And the pEC50 [1]?
Answer: Its pEC50 is over 5.00.

Question: Which results are given for `CNC(=O)c1c(-c2ccc(F)cc2)oc2cc(N(C)S(C)(=O)=O)c(OCc3ccc4c(c3)OC(C)(C)OC4=O)cc12` [Example 302, 5-(2,2-Dimethyl-4-oxo-4H-benzo[1,3]dioxin-7-ylmethoxy)-2-(4-fluoro-phenyl)-6-(methanesulfonyl-methyl-amino)-benzofuran-3-carboxylic acid methylamide]?
Answer: pIC50 (HCV NS5B): ≥ 6.30; pEC50 [1]: > 6.00

Question: How did the pIC50 (HCV NS5B) turn out when `CNC(=O)c1c(-c2ccc(F)cc2)oc2cc(C(C)N(C)S(C)(=O)=O)c(OC)cc12` (stereo not shown) [Example 303, 2-(4-Fluoro-phenyl)-6-[1-(methanesulfonyl-methyl-amino)-ethyl]-5-methoxy-benzofuran-3-carboxylic acid methylamide] was run?
Answer: The pIC50 was at least 6.30.

Question: And the pEC50 [1]?
Answer: The pEC50 was over 6.00.

Question: What does the source list for `CNC(=O)c1c(-c2ccc(F)cc2)oc2cc(C(C)NC)c(OC)cc12` (stereo not shown) [Example 304, 2-(4-Fluoro-phenyl)-5-methoxy-6-(1-methylamino-ethyl)-benzofuran-3-carboxylic acid methylamide]?
Answer: pIC50 (HCV NS5B): 5.30 to 6.30; pEC50 [1]: < 4.52

Question: `CNC(=O)c1c(-c2ccc(F)cc2)oc2cc(N(C)S(C)(=O)=O)c(OCc3ccc(C(=O)OC)cc3)cc12` [Example 305, 4-[2-(4-Fluoro-phenyl)-6-(methanesulfonyl-methyl-amino)-3-methylcarbamoyl-benzofuran-5-yloxymethyl]-benzoic acid methyl ester] was tested. Which pIC50 (HCV NS5B) did it give?
Answer: The pIC50 was at least 6.30.

Question: And the pEC50 [1]?
Answer: The pEC50 was over 6.00.

Question: `CNC(=O)c1c(-c2ccc(F)cc2)oc2cc(N(C)S(C)(=O)=O)c(OCc3cccc(C(=O)OC)c3)cc12` [Example 306] was tested. Which pIC50 (HCV NS5B) did it give?
Answer: The pIC50 was at least 6.30.

Question: And the EC50 [1]?
Answer: The EC50 was under 1 µM.

Question: What does the source list for `CNC(=O)c1c(-c2ccc(F)cc2)oc2cc(N(CCF)S(C)(=O)=O)c(OC)cc12` [Example 307, 6-[(2-Fluoro-ethyl)-methanesulfonyl-amino]-2-(4-fluoro-phenyl)-5-methoxy-benzofuran-3-carboxylic acid methylamide]?
Answer: pIC50 (HCV NS5B): ≥ 6.30; pEC50 [1]: > 6.00

Question: How did the pIC50 (HCV NS5B) turn out when `CNC(=O)c1c(-c2ccc(F)cc2)oc2cc(N(CC(F)(F)F)S(C)(=O)=O)c(OC)cc12` [Example 308, 2-(4-Fluoro-phenyl)-6-[methanesulfonyl-(2,2,2-trifluoro-ethyl)-amino]-5-methoxy-benzofuran-3-carboxylic acid methylamide] was run?
Answer: The pIC50 was at least 6.30.

Question: What about the pEC50 [1] of the same molecule?
Answer: The pEC50 was over 6.00.

Question: What does the source list for `CNC(=O)c1c(-c2ccc(F)cc2)oc2cc(C3CCCN3S(C)(=O)=O)c(OC)cc12` (stereo not shown) [Example 309, 2-(4-Fluoro-phenyl)-6-(1-methanesulfonyl-pyrrolidin-2-yl)-5-methoxy-benzofuran-3-carboxylic acid methylamide]?
Answer: pIC50 (HCV NS5B): ≥ 6.30; pEC50 [1]: > 6.00

Question: Which results are given for `CNC(=O)c1c(-c2ccc(F)cc2)oc2cc(-c3c(C4CC4)noc3COC)c(OC)cc12` [Example 310, 6-(3-Cyclopropyl-5-methoxymethyl-isoxazol-4-yl)-2-(4-fluoro-phenyl)-5-methoxy-benzofuran-3-carboxylic acid methylamide]?
Answer: pIC50 (HCV NS5B): ≥ 6.30; pEC50 [1]: > 6.00

Question: `CNC(=O)c1c(-c2ccc(F)cc2)oc2cc(N(C)S(C)(=O)=O)c(OCc3ccc(C(=O)O)cc3)cc12` [Example 311, 4-[2-(4-Fluoro-phenyl)-6-(methanesulfonyl-methyl-amino)-3-methylcarbamoyl-benzofuran-5-yloxymethyl]-benzoic acid] was tested. Which pIC50 (HCV NS5B) did it give?
Answer: Its pIC50 is at least 6.30.

Question: And the pEC50 [1]?
Answer: The pEC50 was over 5.00.

Question: Which results are given for `CNC(=O)c1c(-c2ccc(F)cc2)oc2cc(N(C)S(C)(=O)=O)c(OCc3cccc(C(=O)O)c3)cc12` [Example 312, 3-[2-(4-Fluoro-phenyl)-6-(methanesulfonyl-methyl-amino)-3-methylcarbamoyl-benzofuran-5-yloxymethyl]-benzoic acid]?
Answer: pIC50 (HCV NS5B): ≥ 6.30; pEC50 [1]: > 6.00
